Laboratory results published in patent US20130296266A1, “Pharmaceutical Composition of Complex Carbohydrates and Essential Oils and Methods of Using the Same” (Dermal Research Laboratories, Inc., priority 1999, published 2013).

Columns and labels:
polymyositis = assay: Mucosal treatment of polymyositis (Example 26); format: in vivo, human; conditions: 50 mg daily
Experimental: A person suffering from colon cancer had been unable to tolerate their colostomy and demanded that their surgeon reconnect their intestines. They refused chemotherapy but requested a preparation prepared according to this invention. They were given a formulation of sodium hyaluronate (Collaborative Laboratories, Inc) which was prepared with a mixture of molecular weights of hyaluronate (as in EXAMPLE 4). When they began taking the hyaluronate preparation, their CEA was 70.1. They have taken the hyaluronate at a dose of 10 mg three times per day mucosally and after 6 months of treatment their CEA has dropped to 4.1. They have taken no other treatments. This patient had also suffered from polymyositis for 15 years. […] After 6 months they have been able to reduce their Prednisone to 5 mg per day.

chronic eczema = assay: Topical treatment of chronic eczema (Example 16); format: in vivo, human; conditions: person
Excerpt: A person suffered from chronic eczema—scaly and red areas on their neck and arms. They had tried all types of treatments, including cortisone with no effect. They were given a preparation containing a mixture of low and high molecular weight sodium hyaluronate (prepared as in EXAMPLE 4) mixed with 1% Wintergreen Oil, 1% Spearmint Oil, and 0.5% Peppermint Oil. They applied it for one week. […] They have not treated the area for 2 months and has noted no return of signs of eczema.

SMILES | relief of polymyositis (polymyositis) | effect on eczema (chronic eczema)
C[C@]12C=CC(=O)C=C1CC[C@@H]1[C@@H]2C(=O)C[C@@]2(C)[C@H]1CC[C@]2(O)C(=O)CO [Prednisone] | without much relief | 
C[C@]12CCC(=O)C=C1CC[C@@H]1[C@@H]2C(=O)C[C@@]2(C)[C@H]1CC[C@]2(O)C(=O)CO [cortisone] |  | no effect
